Experimental data published in the supplement of paper PMC5412046.
Structures can show the parent of a compound that is named as a salt.

What was measured:
SB.mhdgc-1 [1] = experiment: viability at highest tested concentration (MAXR) relative to DMSO; higher = less cytotoxic; details: SB.mhdgc-1 (hereditary c.1380delA CDH1 gastric cancer)
Summary of the method: (§1)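 A pintool delivered 23 nL of compound in DMSO to 1536-well plates holding 500 hereditary or sporadic patient-derived gastric cancer cells in 5 μL medium per well, at 11 concentrations in threefold steps. Following 48 h of exposure, cells were treated with CellTiter-Glo for 30 min at room temperature, and plates were read for luminescence on a ViewLux. The reported measure is viability normalised to DMSO, either at the top concentration or as trapezoidal area under the curve.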

SB.msgc-1 [2] = experiment: as above; details: SB.msgc-1 (sporadic gastric cancer)
Summary of the method: as §1

SB.mhdgc-1 [3] = experiment: area under the dose-response curve of % viability (trapezoidal, 11 doses) (% viability x log10 concentration); higher = less cytotoxic; details: SB.mhdgc-1 (hereditary c.1380delA CDH1 gastric cancer)
Summary of the method: as §1

SB.msgc-1 [4] = experiment: as above; details: SB.msgc-1 (sporadic gastric cancer)
Summary of the method: as §1

O=C(O)C(=O)Nc1cccc(-c2nnn[nH]2)c1 [Acitazanolast] (top concentration 46.0829 µM)
viability (SB.mhdgc-1 [1]): 120% | viability (SB.msgc-1 [2]): 113% | area under the dose-response curve (SB.mhdgc-1 [3]): 545 | area under the dose-response curve (SB.msgc-1 [4]): 505

CC1=C(C=CC=C1)N2\C(=N/C3=C(C(=CC=C3)C)C2=O)C[N]4N=CC5=C4N=CN=C5N [PIK-293] (top concentration 46.0829 µM)
viability (SB.mhdgc-1 [1]): 55.1% | viability (SB.msgc-1 [2]): 26.6% | area under the dose-response curve (SB.mhdgc-1 [3]): 377 | area under the dose-response curve (SB.msgc-1 [4]): 321

Cc1n[nH]c2ccc(-c3cncc(OC[C@@H](N)Cc4c[nH]c5ccccc45)c3)cc12 (top concentration 46.0829 µM)
viability (SB.mhdgc-1 [1]): 8.18% | viability (SB.msgc-1 [2]): 29% | area under the dose-response curve (SB.mhdgc-1 [3]): 399 | area under the dose-response curve (SB.msgc-1 [4]): 392

CC(=O)[C@]1(O)Cc2c(O)c3c(c(O)c2[C@@H](O[C@H]2C[C@H](N)[C@H](O)[C@H](C)O2)C1)C(=O)c1ccccc1C3=O [Idarubicin hydrochloride] (top concentration 46.0829 µM)
viability (SB.mhdgc-1 [1]): 2.79% | viability (SB.msgc-1 [2]): 2.05% | area under the dose-response curve (SB.mhdgc-1 [3]): 319 | area under the dose-response curve (SB.msgc-1 [4]): 372

Cc1nc(-c2ccc(OCC(C)C)c(C#N)c2)sc1C(=O)O [Febuxostat] (top concentration 46.0829 µM)
viability (SB.mhdgc-1 [1]): 103% | viability (SB.msgc-1 [2]): 104% | area under the dose-response curve (SB.mhdgc-1 [3]): 504 | area under the dose-response curve (SB.msgc-1 [4]): 568

COc1ccc2c(OCc3nnc4ccc(-c5ccccc5)nn34)ccnc2c1 [AMG-208] (top concentration 46.0829 µM)
viability (SB.mhdgc-1 [1]): 100% | viability (SB.msgc-1 [2]): 97.7% | area under the dose-response curve (SB.mhdgc-1 [3]): 558 | area under the dose-response curve (SB.msgc-1 [4]): 527

CN(C)[C@H]\1[C@@H]2C[C@H]3C(=C(O)\[C@]2(O)C(=O)\C(=C1O)C(N)=O)/C(=O)C4=C(O)C=CC=C4[C@@]3(C)O [Tetracycline hydrochloride] (top concentration 46.0829 µM)
viability (SB.mhdgc-1 [1]): 88.8% | viability (SB.msgc-1 [2]): 81.7% | area under the dose-response curve (SB.mhdgc-1 [3]): 531 | area under the dose-response curve (SB.msgc-1 [4]): 566

Cc1ccc([S+](=O)([O-])Nc2cc(Cl)ccc2C(=O)Nc2nc(-c3ccccc3)cs2)cc1 (top concentration 46.0829 µM)
viability (SB.mhdgc-1 [1]): 22.9% | viability (SB.msgc-1 [2]): 28.1% | area under the dose-response curve (SB.mhdgc-1 [3]): 519 | area under the dose-response curve (SB.msgc-1 [4]): 468

OCc1ccc(-c2nn(Cc3ccccc3)c3ccccc23)o1 [Lificiguat] (top concentration 46.0829 µM)
viability (SB.mhdgc-1 [1]): 80.3% | viability (SB.msgc-1 [2]): 84% | area under the dose-response curve (SB.mhdgc-1 [3]): 516 | area under the dose-response curve (SB.msgc-1 [4]): 548

COc1ccc(CC2SC(=O)NC2=O)cc1C(=O)NCc1ccc(C(F)(F)F)cc1 (stereo not drawn) [MK-767] (top concentration 46.0829 µM)
viability (SB.mhdgc-1 [1]): 59.8% | viability (SB.msgc-1 [2]): 19.6% | area under the dose-response curve (SB.mhdgc-1 [3]): 462 | area under the dose-response curve (SB.msgc-1 [4]): 271

Cc1ccc(C(=O)c2cc(O)c(O)c([N+](=O)[O-])c2)cc1 [Tolcapone] (top concentration 46.0829 µM)
viability (SB.mhdgc-1 [1]): 40.4% | viability (SB.msgc-1 [2]): 25.3% | area under the dose-response curve (SB.mhdgc-1 [3]): 523 | area under the dose-response curve (SB.msgc-1 [4]): 459

C[C@]12CC[C@H]3[C@@H](CC[C@@]45O[C@@H]4C(O)=C(C#N)C[C@]35C)[C@@H]1CC[C@@H]2O [Trilostane] (top concentration 46.0829 µM)
viability (SB.mhdgc-1 [1]): 13% | viability (SB.msgc-1 [2]): 39.4% | area under the dose-response curve (SB.mhdgc-1 [3]): 478 | area under the dose-response curve (SB.msgc-1 [4]): 374

N#CC(=C(/N)Sc1ccccc1N)/C(C#N)=C(\N)Sc1ccccc1N [U-0126] (top concentration 46.0829 µM)
viability (SB.mhdgc-1 [1]): 23.4% | viability (SB.msgc-1 [2]): 63.9% | area under the dose-response curve (SB.mhdgc-1 [3]): 369 | area under the dose-response curve (SB.msgc-1 [4]): 525

COC(=O)C/1=C/O[C@@H](O)[C@H]\2[C@@H]1C\C=C2CO [Genipin] (top concentration 46.0829 µM)
viability (SB.mhdgc-1 [1]): 31.3% | viability (SB.msgc-1 [2]): 77.1% | area under the dose-response curve (SB.mhdgc-1 [3]): 480 | area under the dose-response curve (SB.msgc-1 [4]): 514

CC/1=C(/C(CC(=O)N1)C2=CC=C(C=C2)C(F)(F)F)C(=O)NC3=C(F)C=C4[NH]N=CC4=C3 (stereo not drawn) (top concentration 46.0829 µM)
viability (SB.mhdgc-1 [1]): 67.9% | viability (SB.msgc-1 [2]): 78.2% | area under the dose-response curve (SB.mhdgc-1 [3]): 407 | area under the dose-response curve (SB.msgc-1 [4]): 539

CCCCCCCCc1ccc(CCC(N)(CO)CO)cc1 [Fingolimod hydrochloride] (top concentration 46.0829 µM)
viability (SB.mhdgc-1 [1]): 1.7% | viability (SB.msgc-1 [2]): 0.854% | area under the dose-response curve (SB.mhdgc-1 [3]): 469 | area under the dose-response curve (SB.msgc-1 [4]): 489

Cc1[nH]c(/C=C2\C(=O)Nc3ccc([S+](=O)([O-])Cc4c(Cl)cccc4Cl)cc32)c(C)c1C(=O)N1CCC[C@@H]1CN1CCCC1 (top concentration 46.0829 µM)
viability (SB.mhdgc-1 [1]): 0.132% | viability (SB.msgc-1 [2]): -1.67% | area under the dose-response curve (SB.mhdgc-1 [3]): 545 | area under the dose-response curve (SB.msgc-1 [4]): 462

Oc1cccc(-c2nc(N3CCOCC3)c3oc4ncccc4c3n2)c1 [PI-103] (top concentration 92.1659 µM)
viability (SB.mhdgc-1 [1]): 6.8% | viability (SB.msgc-1 [2]): 37.9% | area under the dose-response curve (SB.mhdgc-1 [3]): 308 | area under the dose-response curve (SB.msgc-1 [4]): 457

ClC1=C(N\C2=N\CCN2)C3=NSN=C3C=C1 [Tizanidine hydrochloride] (top concentration 46.0829 µM)
viability (SB.mhdgc-1 [1]): 131% | viability (SB.msgc-1 [2]): 132% | area under the dose-response curve (SB.mhdgc-1 [3]): 536 | area under the dose-response curve (SB.msgc-1 [4]): 570

CN(C)C(=O)[C@H](O)[C@H](Cc1ccccc1)NC(=O)c1cc2cc(Cl)ccc2[nH]1 (top concentration 46.0829 µM)
viability (SB.mhdgc-1 [1]): 59.6% | viability (SB.msgc-1 [2]): 55.1% | area under the dose-response curve (SB.mhdgc-1 [3]): 476 | area under the dose-response curve (SB.msgc-1 [4]): 476

COc1cc(OC)c(C(=O)CCCN2CCCC2)c(OC)c1 [Buflomedil hydrochloride] (top concentration 46.0829 µM)
viability (SB.mhdgc-1 [1]): 89.9% | viability (SB.msgc-1 [2]): 86.9% | area under the dose-response curve (SB.mhdgc-1 [3]): 514 | area under the dose-response curve (SB.msgc-1 [4]): 487

Oc1cc(-c2nc(-c3ccccc3)[nH]c2-c2ccncc2)ccc1Cl (top concentration 46.0829 µM)
viability (SB.mhdgc-1 [1]): 19% | viability (SB.msgc-1 [2]): 70.2% | area under the dose-response curve (SB.mhdgc-1 [3]): 384 | area under the dose-response curve (SB.msgc-1 [4]): 488
